Experimental data published in US20240389596A1, “INSECT, ACARINA AND NEMATODE PEST CONTROL” (priority 2021, published 2024).

Tested on: Spodoptera littoralis (Egyptian cotton leaf worm)
Assay: Spodoptera littoralis (Egyptian cotton leaf worm) feeding/contact activity assay on cotton leaf discs
Format: in vivo
Settings: for Mortality (%) Observed (%): single active ingredient, L1 larvae, 3 days after infestation; for Mortality (%) Expected (%): component B alone, value printed in the Expected column
Text: A synergistic effect exists whenever the action of an active ingredient combination is greater than the sum of the actions of the individual components. The action to be expected E for a given active ingredient combination obeys the so-called COLBY formula and can be calculated as follows (COLBY, S. R. “Calculating synergistic and antagonistic responses of herbicide combination”. Weeds, Vol. 15, pages 20-22 1967):
ppm=milligrams of active ingredient (a.i.) per liter X=% action by first active ingredient using p ppm of the active ingredient Y=% action by second active ingredient using q ppm of the active ingredient.
According to Colby, the expected (additive) action of active ingredients A+B using p+q ppm of active ingredient is
If the action actually observed O is greater than the expected action E, then the action of the combination is super-additive, i.e. there is a synergistic effect. In mathematical terms, synergism corresponds to a positive value for the difference of (O-E). In the case of purely complementary addition of activities (expected activity), said difference (O-E) is zero. A negative value of said difference (O-E) signals a loss of activity compared to the expected activity.
The synergistic biological activity of combinations of component (A) and component (B) as disclosed herein was assessed using a Spodoptera littoralis (Egyptian cotton leaf worm) feeding/contact activity assay. Cotton leaf discs were placed onto agar in 24-well microtiter plates and sprayed with aqueous test solutions prepared from 10′000 ppm DMSO stock solutions. After drying the leaf discs were infested with L1 larvae. The samples were assessed for mortality 3 days after infestation.

`O=C(Nc1ccc(F)c(NC(=O)C(F)F)c1F)c1cc(NC(=O)[C@H]2[C@H](c3cc(C(F)(F)F)cc(C(F)(F)F)c3)C2(Cl)Cl)ccc1Cl` [A-1] was tested, and the “Mortality (%) Observed (%)” value ([AI] 0.016 mg/L) was 0%, the “Mortality (%) Observed (%)” value ([AI] 0.031 mg/L) was 0% and the “Mortality (%) Observed (%)” value ([AI] 0.062 mg/L) was 0%. The “Mortality (%) Observed (%)” value ([AI] 0.125 mg/L) was 0%, the “Mortality (%) Observed (%)” value ([AI] 0.25 mg/L) was 80% and the “Mortality (%) Observed (%)” value ([AI] 0.5 mg/L) was 100%.

With `C[n+]1c([O-])c(-c2ccccc2)c(=O)n2c1SC[C@@H]2c1cnc(Cl)s1` [B-4, fenmezoditiaz] the “Mortality (%) Observed (%)” value ([AI] 15.625 mg/L) was 0%, the “Mortality (%) Observed (%)” value ([AI] 31.25 mg/L) was 0% and the “Mortality (%) Observed (%)” value ([AI] 62.5 mg/L) was 0%.

For `CCS(=O)(=O)c1cccnc1-c1cnc(OCC(F)(F)C(F)(F)F)cn1` [B-10, 2-(3-ethylsulfonyl-2-pyridyl)-5-(2,2,3,3,3-pentafluoropropoxy)pyrazine], the “Mortality (%) Observed (%)” value ([AI] 0.625 mg/L) was 0%, the “Mortality (%) Observed (%)” value ([AI] 1.25 mg/L) was 10% and the “Mortality (%) Observed (%)” value ([AI] 2.5 mg/L) was 50%. For the same molecule, the “Mortality (%) Observed (%)” value ([AI] 5 mg/L) was 100% and the “Mortality (%) Observed (%)” value ([AI] 10 mg/L) was 100%.

In the case of `CCN(C(=O)c1cnn(C(C)C(C)C)c1C)c1ccnnc1` (stereo not drawn) [B-17, dimpropyridaz], the “Mortality (%) Observed (%)” value ([AI] 15.625 mg/L) is reported as 0%, the “Mortality (%) Observed (%)” value ([AI] 31.25 mg/L) is reported as 0% and the “Mortality (%) Observed (%)” value ([AI] 62.5 mg/L) is reported as 0%. For the same molecule, the “Mortality (%) Observed (%)” value ([AI] 125 mg/L) was 0%.

For `Cc1cc(Cl)cc(C)c1C1=C(O)C2(CCC3(CC2)OCCO3)NC1=O` [B-18, spidoxamat], the “Mortality (%) Expected (%)” value ([AI] 7.812 mg/L) was 0%, the “Mortality (%) Expected (%)” value ([AI] 15.625 mg/L) was 0% and the “Mortality (%) Expected (%)” value ([AI] 31.25 mg/L) was 0%.

With `O=c1c(-c2cccc(C(F)(F)F)c2)c([O-])[n+](Cc2cncnc2)c2ccccn12` [B-42, triflumezopyrim] the “Mortality (%) Observed (%)” value ([AI] 15.625 mg/L) was 0%, the “Mortality (%) Observed (%)” value ([AI] 31.25 mg/L) was 0% and the “Mortality (%) Observed (%)” value ([AI] 62.5 mg/L) was 0%. The “Mortality (%) Observed (%)” value ([AI] 125 mg/L) was 20% and the “Mortality (%) Observed (%)” value ([AI] 250 mg/L) was 20%.

In the case of `CNC(=O)c1cc(Cl)cc(C)c1NC(=O)c1cc(Br)nn1-c1ncccc1Cl` [B-46, chlorantraniliprole], the “Mortality (%) Observed (%)” value ([AI] 0.062 mg/L) is reported as 0%, the “Mortality (%) Observed (%)” value ([AI] 0.125 mg/L) is reported as 0% and the “Mortality (%) Observed (%)” value ([AI] 0.25 mg/L) is reported as 0%. The “Mortality (%) Observed (%)” value ([AI] 0.5 mg/L) was 100%.

`CC(c1ccc(C(F)(F)F)nc1)S(C)(=O)=NC#N` (stereo not drawn) [B-55, sulfoxaflor] was tested, and the “Mortality (%) Observed (%)” value ([AI] 62.5 mg/L) was 0%, the “Mortality (%) Observed (%)” value ([AI] 125 mg/L) was 0% and the “Mortality (%) Observed (%)” value ([AI] 250 mg/L) was 10%.
